# Like-named read-outs stand apart in the source and are kept apart here.
# Legend:
# [1] = Biological activity of chosen Compound 1 formulations
# Source text: The pH was adjusted if needed.
# [2] = system: LN cells; assay: IFN-γ secretion by cultured LN cells of immunized and treated mice (ELISA); assay type: in vivo, BALB/c mice
# Procedure: A group of 20 mice were immunized with 50 μg/mouse of Compound 1 RS. The immunized mice were allocated to five treatment groups as follows: placebo, 25, 50, 100 and 200 μg/mouse of Compound 1 DP (subcutaneous administration). Ten days post immunization and treatment, LN was extracted and single cell suspension was prepared. The in-vitro secretion of IFN-γ and TGF-β by the cultured cells in response to activation with several concentrations of Compound 1 RS was then measured. [table] [table] Mice: 20 female BALB/c mice, supplied by Harlan animals breeding center, Rehovot. Age at immunization (week+days): 10 Average weight of mice included in the experiment: 19.01 gr. The immunization was performed by injecting 100 microliters of the immunization emulsion (50 microliters into each hind footpad). […] Mice were sacrificed by cervical dislocation. LN were extracted from the hind legs and were transferred to a sterile petri dish containing about 5 mL RPMI. The cells were extracted by gentle squeezing of the tissue against a 200 micrometer mesh stainless steel net. The cells were collected and centrifuged at 300 G for 10 minutes at RT. Single cell suspensions were prepared from pooled LN of each experimental group. […] Secretion of IFN-γ and TGF-β, as indication of cellular response, were determined by ELISA of culture media (48 hrs for IFN-γ and 72 hrs for TGF-β).
# [3] = Solubility of Compound 1 with solubility enhancers (visual examination and analytical assay)
# [4] = system: PBL of SLE patients stimulated with human 16/6Id mAb; assay type: cell-based; conditions: for inhibition of proliferative responses to human 16/6Id mAb: PBL of one SLE patient
# Procedure: Cells were then harvested and radioactivity was counted using a β-counter. Results were expressed as mean counts per minute (cpm) of triplicate cultures. Stimulation indices (the ratio of mean cpm at the optimal concentration of 16/6Id to mean cpm without 16/6Id) were then calculated. A stimulation index (SI)≧2 was considered positive. […] Inhibition of above 50% of the proliferative capacity was considered positive. The Table represents the highest positive inhibition capacity for each peptide. […] Both peptides inhibited the proliferation of PBL of 18/19(95%) of responders tested. It can also be seen in the Table that the magnitudes of inhibitions were similar for both peptides. Thus, it can be concluded that peptides based on CDR1 and CDR3 of the human 16/6Id mAb are efficient inhibitors of the proliferation of PBL of SLE patients to the human 16/6Id mAb.
# [5] = system: Balb/c mice and (NZB×NZW)F1 mice; conditions: cited from earlier work
# [6] = system: PBL of SLE patients stimulated with phytohemagglutinin (PHA); assay: Proliferation of PBL stimulated with mitogen PHA; assay type: cell-based, human; conditions: PHA 2 μg/ml; PBL of one SLE patient, FIG. 9
# Procedure: To this end the peptides hCDR1 or hCDR3 were added to cultures of PBL of SLE patients that were stimulated with the mitogen phytohemagglutinin (PHA, 2 μg/ml).
# [7] = system: LN cells; assay: TGF-β secretion by cultured LN cells of immunized and treated mice (ELISA); assay type: in vivo, BALB/c mice; conditions: all Compound 1 treatment groups (25-200 μg/mouse)
# Procedure: A group of 20 mice were immunized with 50 μg/mouse of Compound 1 RS. The immunized mice were allocated to five treatment groups as follows: placebo, 25, 50, 100 and 200 μg/mouse of Compound 1 DP (subcutaneous administration). Ten days post immunization and treatment, LN was extracted and single cell suspension was prepared. The in-vitro secretion of IFN-γ and TGF-β by the cultured cells in response to activation with several concentrations of Compound 1 RS was then measured. [table] […] Secretion of IFN-γ and TGF-β, as indication of cellular response, were determined by ELISA of culture media (48 hrs for IFN-γ and 72 hrs for TGF-β).
# [8] = Mouse toxicity study of formulation; assay type: in vivo; conditions: 30% (w/w) PEG 400 formulation
# Source text: Thus, it was decided not to further pursue this formulation. In view of the preliminary experiments non-aqueous solvents were not used in the subject formulations.
substance,measurement,setting,value
H-GYYWSWIRQPPGKGEEWIG-OH [Compound 1],biological activity,[1]; 30% (w/w) PEG 400 formulation,inactive
same,biological activity,[1]; formulations with acetate buffer and citrate buffer (Mannitol as tonicity agent),active
same,biological activity,"[1]; the two cyclodextrin formulations (Hydroxypropyl-β-cyclodextrin, Captisol)",equal to the activity of the peptide alone
same,Final cytokine (IFN-γ),"[2]; treated 25 μg/M s.c., 5 million cells/well, activation Compound 1 3.125 μg/ml",BQL
same,Final cytokine (IFN-γ),"[2]; treated 25 μg/M s.c., 5 million cells/well, activation Compound 1 6.25 μg/ml",BQL
same,Final cytokine (IFN-γ),"[2]; treated 25 μg/M s.c., 5 million cells/well, activation Compound 1 12.5 μg/ml",41.9 pg/mL
same,Final cytokine (IFN-γ),"[2]; treated 25 μg/M s.c., 5 million cells/well, activation Compound 1 50 μg/ml",104.2 pg/mL
same,Final cytokine (IFN-γ),"[2]; treated 25 μg/M s.c., 5 million cells/well, activation Compound 1 100 μg/ml",185.2 pg/mL
same,Final cytokine (IFN-γ),"[2]; treated 25 μg/M s.c., 5 million cells/well, activation Compound 1 25 μ/ml",70.0 pg/mL
same,Final cytokine (IFN-γ),"[2]; treated 25 μg/M s.c., 5 million cells/well, activation Con A",2995.3 pg/mL
same,Final cytokine (IFN-γ),"[2]; treated 50 μg/M s.c., 2.5 million cells/well, activation Compound 1 3.125 μg/ml",54.1 pg/mL
same,Final cytokine (IFN-γ),"[2]; treated 50 μg/M s.c., 2.5 million cells/well, activation Compound 1 6.25 μg/ml",81.8 pg/mL
same,Final cytokine (IFN-γ),"[2]; treated 50 μg/M s.c., 2.5 million cells/well, activation Compound 1 12.5 μg/ml",123.1 pg/mL
same,Final cytokine (IFN-γ),"[2]; treated 50 μg/M s.c., 2.5 million cells/well, activation Compound 1 50 μg/ml",292.5 pg/mL
same,Final cytokine (IFN-γ),"[2]; treated 50 μg/M s.c., 2.5 million cells/well, activation Compound 1 100 μg/ml",531.8 pg/mL
same,Final cytokine (IFN-γ),"[2]; treated 50 μg/M s.c., 2.5 million cells/well, activation Compound 1 25 μ/ml",215.1 pg/mL
same,Final cytokine (IFN-γ),"[2]; treated 50 μg/M s.c., 2.5 million cells/well, activation Con A",356.2 pg/mL
same,Final cytokine (IFN-γ),"[2]; treated 50 μg/M s.c., 5 million cells/well, activation Compound 1 3.125 μg/ml",76.2 pg/mL
same,Final cytokine (IFN-γ),"[2]; treated 50 μg/M s.c., 5 million cells/well, activation Compound 1 6.25 μg/ml",109.2 pg/mL
same,Final cytokine (IFN-γ),"[2]; treated 50 μg/M s.c., 5 million cells/well, activation Compound 1 12.5 μg/ml",179.5 pg/mL
same,Final cytokine (IFN-γ),"[2]; treated 50 μg/M s.c., 5 million cells/well, activation Compound 1 50 μg/ml",373.4 pg/mL
same,Final cytokine (IFN-γ),"[2]; treated 50 μg/M s.c., 5 million cells/well, activation Compound 1 100 μg/ml",547.0 pg/mL
same,Final cytokine (IFN-γ),"[2]; treated 50 μg/M s.c., 5 million cells/well, activation Compound 1 25 μ/ml",277.9 pg/mL
same,Final cytokine (IFN-γ),"[2]; treated 50 μg/M s.c., 5 million cells/well, activation Con A",4837.0 pg/mL
same,Final cytokine (IFN-γ),"[2]; treated 100 μg/M s.c., 2.5 million cells/well, activation Compound 1 3.125 μg/ml",64.5 pg/mL
same,Final cytokine (IFN-γ),"[2]; treated 100 μg/M s.c., 2.5 million cells/well, activation Compound 1 6.25 μg/ml",116.1 pg/mL
same,Final cytokine (IFN-γ),"[2]; treated 100 μg/M s.c., 2.5 million cells/well, activation Compound 1 12.5 μg/ml",180.9 pg/mL
same,Final cytokine (IFN-γ),"[2]; treated 100 μg/M s.c., 2.5 million cells/well, activation Compound 1 50 μg/ml",518.3 pg/mL
same,Final cytokine (IFN-γ),"[2]; treated 100 μg/M s.c., 2.5 million cells/well, activation Compound 1 100 μg/ml",582.7 pg/mL
same,Final cytokine (IFN-γ),"[2]; treated 100 μg/M s.c., 2.5 million cells/well, activation Compound 1 25 μ/ml",262.8 pg/mL
same,Final cytokine (IFN-γ),"[2]; treated 100 μg/M s.c., 2.5 million cells/well, activation Con A",337.4 pg/mL
same,Final cytokine (IFN-γ),"[2]; treated 100 μg/M s.c., 5 million cells/well, activation Compound 1 3.125 μg/ml",90.8 pg/mL
same,Final cytokine (IFN-γ),"[2]; treated 100 μg/M s.c., 5 million cells/well, activation Compound 1 6.25 μg/ml",157.8 pg/mL
same,Final cytokine (IFN-γ),"[2]; treated 100 μg/M s.c., 5 million cells/well, activation Compound 1 12.5 μg/ml",257.1 pg/mL
same,Final cytokine (IFN-γ),"[2]; treated 100 μg/M s.c., 5 million cells/well, activation Compound 1 50 μg/ml",739.7 pg/mL
same,Final cytokine (IFN-γ),"[2]; treated 100 μg/M s.c., 5 million cells/well, activation Compound 1 100 μg/ml",995.5 pg/mL
same,Final cytokine (IFN-γ),"[2]; treated 100 μg/M s.c., 5 million cells/well, activation Compound 1 25 μ/ml",421.7 pg/mL
same,Final cytokine (IFN-γ),"[2]; treated 100 μg/M s.c., 5 million cells/well, activation Con A",10126.8 pg/mL
same,Final cytokine (IFN-γ),"[2]; treated 200 μg/M s.c., 2.5 million cells/well, activation Compound 1 3.125 μg/ml",103.9 pg/mL
same,Final cytokine (IFN-γ),"[2]; treated 200 μg/M s.c., 2.5 million cells/well, activation Compound 1 6.25 μg/ml",126.1 pg/mL
same,Final cytokine (IFN-γ),"[2]; treated 200 μg/M s.c., 2.5 million cells/well, activation Compound 1 12.5 μg/ml",129.0 pg/mL
same,Final cytokine (IFN-γ),"[2]; treated 200 μg/M s.c., 2.5 million cells/well, activation Compound 1 50 μg/ml",378.1 pg/mL
same,Final cytokine (IFN-γ),"[2]; treated 200 μg/M s.c., 2.5 million cells/well, activation Compound 1 100 μg/ml",524.1 pg/mL
same,Final cytokine (IFN-γ),"[2]; treated 200 μg/M s.c., 2.5 million cells/well, activation Compound 1 25 μ/ml",240.3 pg/mL
same,Final cytokine (IFN-γ),"[2]; treated 200 μg/M s.c., 2.5 million cells/well, activation Con A",BQL
same,Final cytokine (IFN-γ),"[2]; treated 200 μg/M s.c., 5 million cells/well, activation Compound 1 3.125 μg/ml",204.4 pg/mL
same,Final cytokine (IFN-γ),"[2]; treated 200 μg/M s.c., 5 million cells/well, activation Compound 1 6.25 μg/ml",244.1 pg/mL
same,Final cytokine (IFN-γ),"[2]; treated 200 μg/M s.c., 5 million cells/well, activation Compound 1 12.5 μg/ml",466.1 pg/mL
same,Final cytokine (IFN-γ),"[2]; treated 200 μg/M s.c., 5 million cells/well, activation Compound 1 50 μg/ml",922.5 pg/mL
same,Final cytokine (IFN-γ),"[2]; treated 200 μg/M s.c., 5 million cells/well, activation Compound 1 100 μg/ml",1006.2 pg/mL
same,Final cytokine (IFN-γ),"[2]; treated 200 μg/M s.c., 5 million cells/well, activation Compound 1 25 μ/ml",660.5 pg/mL
same,Final cytokine (IFN-γ),"[2]; treated 200 μg/M s.c., 5 million cells/well, activation Con A",7722.8 pg/mL
same,average inhibition of IFN-γ secretion,[2]; treated dose of 25 μg/mouse,95%
same,solubility,[3]; 30% (w/w) PEG 400,5000 to 9000 µg/mL
same,solubility,[3]; 30% DMA (dimethyl-acetamide) solution,5000 to 9000 µg/mL
same,solubility,[3]; Human Serum Albumin solution,1000 µg/mL
same,solubility,[3]; Hydroxypropyl-β-cyclodextrin solution,~10000 µg/mL
same,solubility,"[3]; L-Arginine, resulting pH above 9",at the desired level
same,solubility,"[3]; Polysorbate 20 / Polysorbate 80 solution, up to 10%",≤ 2000 µg/mL
same,solubility,[3]; Sulfobutylether-β-cyclodextrin (Captisol) solution,~2500 µg/mL
same,effect on solubility,"[3]; bulking agents Mannitol, Sorbitol, Dextran, alone and combined",did not improve the solubility
same,stability versus pH,"[3]; initial tests, limits of desired pH levels",less stable at the basic pH range
same,effect on solubility,"[3]; non aqueous solvents Ethanol, Glycerin, Propylene glycol, Chremophore and combinations",did not increase the solubility
same,"Percent Inhibition of proliferation, Mean ± SD",[4],68.12 ± 9.57%
same,inhibition of proliferative responses to human 16/6Id mAb,[4]; FIG. 10,inhibited efficiently
same,inhibition of proliferative responses to human 16/6Id mAb,[4]; FIG. 11,did inhibit efficiently
same,responders whose PBL proliferation was inhibited (above 50%),[4]; of the 19 responders tested,84.2%
same,16/6 Id specific antibody response,[5],no effect
same,"SLE related findings (immune complex deposits in the kidney, proteinuria, leukopenia)",[5],significantly reduced
same,inhibition of proliferative responses to mitogen PHA,[6],could not inhibit
same,TGF-β secreted level,[7],below the detection limit
same,adverse effects,[8],may have been the cause of some adverse effects

# From patent publication US20130023485A1, “PARENTERAL FORMULATIONS OF PEPTIDES FOR THE TREATMENT OF SYSTEMATIC LUPUS ERYTHEMATOSUS” (Teva Pharmaceutical Industries, Ltd., priority 2003, published 2013)
